The term EC50 denotes the concentration at which the effect is half-maximal.

The subject of this assay is AMPA receptors. Nature of the assay: AMPA ES cell FLIPR screen (AMPA Potentiator Assay). The format is cell-based. As to conditions: murine ES cell-derived neurons, FLIPR Fluo-4 calcium signal, 32 uM AMPA challenge; values marked * are the geometric mean of 2-9 EC50 determinations. On the procedure:
The murine ES cell line used was E14-Sx1-16C, which has a targeted mutation in the Sox1 gene, a neuroectodermal marker, that offers G418 resistance when the Sox1 gene is expressed (Stem Cell Sciences). ES cells were maintained undifferentiated as previously described (Roach). […] ES cells were plated on gelatin-coated dishes (BD Biosciences), the media was changed daily and the cells were dissociated with 0.05% Trypsin EDTA (Invitrogen) every other day.
Embryoid Body Formation: Prior to embryoid body (EB) formation the ES cells were weaned from FBS onto Knockout Serum Replacement (KSR) (Invitrogen). To form EBs, ES cells were dissociated into a single cell suspension, then 3×10^6 cells were plated in bacteriology dishes (Nunc 4014) and grown as a suspension culture in NeuroEB-I medium that consisted of Knockout™ D-MEM (Invitrogen), supplemented with 10% KSR (Invitrogen), 0.2 mM L-Glutamine (Invitrogen), 0.1 mM MEM non-essential amino acids (Invitrogen), 30 μg/ml Gentamicin (Invitrogen), 1000 u/ml ESGRO (Chemicon), 0.1 mM 2-Mercaptoethanl (Sigma) and 150 ng/ml Transferrin (Invitrogen). The plates were put on a Stovall Belly Button shaker in an atmospheric oxygen incubator. The media was changed on day 2 of EB formation with NeuroEB-I and on day 4 with NeuroEB-II (NeuroEB-I plus 1 μg/ml mNoggin [R&D Systems]).
Neuronal Precursor Selection and Expansion: On day 5 of EB formation, EBs were dissociated with 0.05% Trypsin EDTA, and 4×10^6cells/100 mm dish were plated on Laminin coated tissue culture dishes in Neuroll-G418 medium that consisted of a base medium of a 1:1 mixture of D-MEM/F12 supplemented with N2 supplements and NeuroBasal Medium supplemented with B27 supplement and 0.1 mM L-Glutamine (all from Invitrogen). The base medium was then supplemented with 10 ng/ml bFGF (Invitrogen), 1 μg/ml mNoggin, 500 ng/ml SHH—N, 100 ng/ml FGF-8b (R&D Systems), 1 μg/ml Laminin and 200 μg/ml G418 (Invitrogen) for selection of neuronal precursors expressing Sox-1. The plates were put in an incubator that contained 2% Oxygen and were maintained in these conditions. During the 6-day selection period, the Neuroll media was changed daily. On day 6, the surviving neuronal precursor foci were dissociated with 0.05% Trypsin EDTA and the cells were plated at a density of 1.5×10^6 cells/100 mm Laminin coated dish in Neuroll-G418 medium. The cells were dissociated every other day for expansion, and prepared for Cryopreservation at passage 3 or 4. The crypreservation medium contained 50% KSR, 10% Dimethyl Sulfoxide (DMSO) (Sigma) and 40% Neurol-G418I medium. Neuronal precursors were crypreserved at a concentration of 4×10^6 cells/ml and 1 ml/cryovial in a controlled rate freezer overnight then transferred to an ultra-low freezer or liquid nitrogen for long-term storage.
Neuronal Differentiation: Cryopreserved ES cell-derived neuronal precursors were thawed by the rapid thaw method in a 37-degree water-bath. The cells were transferred from the cryovial to a 100 mm Laminin coated tissue culture dish that already contained Neuroll-G418 that had been equilibrated in a 2% Oxygen incubator. The media was changed with fresh Neuroll-G418 the next day. The cells were dissociated every other day as described above for expansion to generate enough cells to plate for the screen. For the screen, the cells were plated into 384-well poly-d-lysine coated tissue culture dishes (BD Biosciences) by the automated SelecT at a cell density of 6K cells/well in differentiation medium Neurolll that contained a 4:1 ratio of the NeuroBasalMedium/B27:D-MEM/F12/N2 supplemented with 1 μM cAMP (Sigma), 200 μM Ascorbic Acid (Sigma), 1 μg/ml Laminin (Invitrogen) and 10 ng/ml BDNF (R&D Systems). The plates were put in an incubator with 2% Oxygen and allowed to complete the differentiation process for 7 days. The cells could then be used over a 5-day period for the high throughput screen.
On the day of the assay, the FLIPR assay may be performed using the following methods: […]
For `CC(C)S(=O)(=O)N[C@H]1COCC[C@H]1c1ccc(-c2ccc(C#N)s2)cc1` [Example 59, N-{(3R,4S)-4-[4-(5-cyano-2-thienyl)phenyl]tetrahydro-2H-pyran-3-yl}propane-2-sulfonamide], the EC50 came to 2100 nM.
Turning to `CC(C)S(=O)(=O)N[C@@H]1COCC[C@@H]1c1ccc(-c2ccc(C#N)cc2)cc1` [Example 60, N-[(3S,4R)-4-(4′-cyanobiphenyl-4-yl)tetrahydro-2H-pyran-3-yl]propane-2-sulfonamide], the half-maximal effective concentration (EC50) was greater than 31600 nM.
The same measure for `CC(C)S(=O)(=O)N[C@H]1COCC[C@H]1c1ccc(-c2ccc(C#N)cc2)cc1` [Example 61, N-[(3R,4S)-4-(4′-cyanobiphenyl-4-yl)tetrahydro-2H-pyran-3-yl]propane-2-sulfonamide]: greater than 31600 nM; for `CCOc1ccccc1-c1ccc([C@H]2CCOC[C@H]2NS(=O)(=O)C(C)C)cc1` [Example 62, N-[(3S,4R)-4-(2′-ethoxybiphenyl-4-yl)tetrahydro-2H-pyran-3-yl]propane-2-sulfonamide]: greater than 31600 nM.
The same measure for `CCOc1ccccc1-c1ccc([C@@H]2CCOC[C@@H]2NS(=O)(=O)C(C)C)cc1` [Example 63, N-[(3R,4S)-4-(2′-ethoxybiphenyl-4-yl)tetrahydro-2H-pyran-3-yl]propane-2-sulfonamide]: 669 nM.

The record behind these values is patent publication US20110172297A1, “Oxopiperdinyl And Pyranyl Sulfonamides and Pharmaceutical Compositions Thereof” (Pfizer Inc, priority 2008, published 2011).
